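Abbreviation: GI50, concentration required for 50% inhibition of growth. TGI denotes the concentration required for complete inhibition of growth.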
Experiments:
Assay in all cases: growth of human tumour cells (NCI), 384-well format
NCI-H522 lung = test system: NCI-H522 lung
OVCAR-3 ovarian = test system: OVCAR-3 ovarian
SF-295 CNS = test system: SF-295 CNS
SNB-75 CNS = test system: SNB-75 CNS
HCC-2998 colon = test system: HCC-2998 colon
CCRF-CEM leukemia = test system: CCRF-CEM leukemia
ACHN renal = test system: ACHN renal
TK-10 renal = test system: TK-10 renal
HCT-15 colon = test system: HCT-15 colon
HS 578T breast = test system: HS 578T breast
EKVX NSCLC = test system: EKVX NSCLC
MDA-MB-468 breast = test system: MDA-MB-468 breast
MCF7 breast = test system: MCF7 breast
BT-549 breast = test system: BT-549 breast
SNB-19 CNS = test system: SNB-19 CNS
786-0 renal = test system: 786-0 renal
LOX IMVI melanoma = test system: LOX IMVI melanoma
UACC-257 melanoma = test system: UACC-257 melanoma
SK-MEL-28 melanoma = test system: SK-MEL-28 melanoma
NCI-H226 lung = test system: NCI-H226 lung
SF-268 CNS = test system: SF-268 CNS
SK-OV-3 ovarian = test system: SK-OV-3 ovarian
NCI-H460 NSCLC = test system: NCI-H460 NSCLC
HT29 colon = test system: HT29 colon
UACC-62 melanoma = test system: UACC-62 melanoma
HL-60(TB) leukemia = test system: HL-60(TB) leukemia
NCI-H322M lung = test system: NCI-H322M lung
MOLT-4 leukemia = test system: MOLT-4 leukemia
HOP-62 NSCLC = test system: HOP-62 NSCLC
HOP-92 NSCLC = test system: HOP-92 NSCLC
KM12 colon = test system: KM12 colon
DU-145 prostate = test system: DU-145 prostate
A549 NSCLC = test system: A549 NSCLC
COLO 205 colon = test system: COLO 205 colon
PC-3 prostate = test system: PC-3 prostate
IGROV1 ovarian = test system: IGROV1 ovarian
HCT-116 colon = test system: HCT-116 colon
RPMI-8226 leukemia = test system: RPMI-8226 leukemia
K-562 leukemia = test system: K-562 leukemia
SN12C renal = test system: SN12C renal
A498 renal = test system: A498 renal
OVCAR-8 ovarian = test system: OVCAR-8 ovarian
SW-620 colon = test system: SW-620 colon
MALME-3M melanoma = test system: MALME-3M melanoma
M14 melanoma = test system: M14 melanoma
RXF 393 renal = test system: RXF 393 renal
NCI-H23 lung = test system: NCI-H23 lung
CAKI-1 renal = test system: CAKI-1 renal
U251 glioblastoma = test system: U251 glioblastoma
NCI/ADR-RES ovarian = test system: NCI/ADR-RES ovarian
SF-539 CNS = test system: SF-539 CNS
MDA-MB-435 melanoma = test system: MDA-MB-435 melanoma
OVCAR-4 ovarian = test system: OVCAR-4 ovarian
SK-MEL-2 melanoma = test system: SK-MEL-2 melanoma
SK-MEL-5 melanoma = test system: SK-MEL-5 melanoma

CN(C)CCN(C)CC(C)(C)C(=O)/C=C/c1ccc(Cl)c(Cl)c1
GI50 (NCI-H522 lung): 1330 nM
TGI (NCI-H522 lung): 2620 nM
GI50 (OVCAR-3 ovarian): 1350 nM
TGI (OVCAR-3 ovarian): 2640 nM
GI50 (SF-295 CNS): 1560 nM
TGI (SF-295 CNS): 2940 nM
GI50 (SNB-75 CNS): 2020 nM
TGI (SNB-75 CNS): 3450 nM
GI50 (HCC-2998 colon): 1500 nM
TGI (HCC-2998 colon): 2840 nM
GI50 (CCRF-CEM leukemia): 216 nM
TGI (CCRF-CEM leukemia): 479 nM
GI50 (ACHN renal): 1570 nM
TGI (ACHN renal): 2940 nM
GI50 (TK-10 renal): 1440 nM
TGI (TK-10 renal): 2750 nM
GI50 (HCT-15 colon): 1230 nM
TGI (HCT-15 colon): 2530 nM
GI50 (HS 578T breast): 2000 nM
TGI (HS 578T breast): 3440 nM
GI50 (EKVX NSCLC): 1650 nM
TGI (EKVX NSCLC): 3080 nM
GI50 (MDA-MB-468 breast): 510 nM
TGI (MDA-MB-468 breast): 902 nM
GI50 (MCF7 breast): 796 nM
TGI (MCF7 breast): 2050 nM
GI50 (BT-549 breast): 1680 nM
TGI (BT-549 breast): 3060 nM
GI50 (SNB-19 CNS): 1750 nM
TGI (SNB-19 CNS): 3170 nM
GI50 ([…]-0 renal): 1460 nM
TGI (786-0 renal): 2790 nM
GI50 (LOX IMVI melanoma): 1640 nM
TGI (LOX IMVI melanoma): 3020 nM
GI50 (UACC-257 melanoma): 1450 nM
TGI (UACC-257 melanoma): 2770 nM
GI50 (SK-MEL-28 melanoma): 1890 nM
TGI (SK-MEL-28 melanoma): 3310 nM
GI50 (NCI-H226 lung): 1470 nM
TGI (NCI-H226 lung): 2790 nM
GI50 (SF-268 CNS): 1930 nM
TGI (SF-268 CNS): 3350 nM
GI50 (SK-OV-3 ovarian): 1280 nM
TGI (SK-OV-3 ovarian): 2550 nM
GI50 (NCI-H460 NSCLC): 1410 nM
TGI (NCI-H460 NSCLC): 2780 nM
GI50 (HT29 colon): 1440 nM
TGI (HT29 colon): 2990 nM
GI50 (UACC-62 melanoma): 1410 nM
TGI (UACC-62 melanoma): 2720 nM
GI50 (HL-60(TB) leukemia): 161 nM
TGI (HL-60(TB) leukemia): 309 nM
GI50 (NCI-H322M lung): 1310 nM
TGI (NCI-H322M lung): 2600 nM
GI50 (MOLT-4 leukemia): 215 nM
TGI (MOLT-4 leukemia): 459 nM
GI50 (HOP-62 NSCLC): 1720 nM
TGI (HOP-62 NSCLC): 3100 nM
GI50 (HOP-92 NSCLC): 1090 nM
TGI (HOP-92 NSCLC): 2290 nM
GI50 (KM12 colon): 810 nM
TGI (KM12 colon): 2060 nM
GI50 (DU-145 prostate): 1600 nM
TGI (DU-145 prostate): 3000 nM
GI50 (A549 NSCLC): 1720 nM
TGI (A549 NSCLC): 3130 nM
GI50 (COLO 205 colon): 1600 nM
TGI (COLO 205 colon): 2980 nM
GI50 (PC-3 prostate): 1510 nM
TGI (PC-3 prostate): 2860 nM
GI50 (IGROV1 ovarian): 1480 nM
TGI (IGROV1 ovarian): 2810 nM
GI50 (HCT-116 colon): 1270 nM
TGI (HCT-116 colon): 2590 nM
GI50 (RPMI-8226 leukemia): 319 nM
TGI (RPMI-8226 leukemia): 667 nM
GI50 (K-562 leukemia): 1820 nM
TGI (K-562 leukemia): 3250 nM
GI50 (SN12C renal): 1320 nM
TGI (SN12C renal): 2600 nM
GI50 (A498 renal): 1450 nM
TGI (A498 renal): 2770 nM
GI50 (OVCAR-8 ovarian): 1300 nM
TGI (OVCAR-8 ovarian): 2590 nM
GI50 (SW-620 colon): 1340 nM
TGI (SW-620 colon): 2650 nM
GI50 (MALME-3M melanoma): 2050 nM
TGI (MALME-3M melanoma): 3490 nM
GI50 (M14 melanoma): 1690 nM
TGI (M14 melanoma): 3080 nM
GI50 (RXF 393 renal): 1080 nM
TGI (RXF 393 renal): 2270 nM
GI50 (NCI-H23 lung): 1470 nM
TGI (NCI-H23 lung): 2840 nM
GI50 (CAKI-1 renal): 1080 nM
TGI (CAKI-1 renal): 2290 nM
GI50 (U251 glioblastoma): 1520 nM
TGI (U251 glioblastoma): 2870 nM
GI50 (NCI/ADR-RES ovarian): 1570 nM
TGI (NCI/ADR-RES ovarian): 2920 nM
GI50 (SF-539 CNS): 1340 nM
TGI (SF-539 CNS): 2630 nM
GI50 (MDA-MB-435 melanoma): 1360 nM
TGI (MDA-MB-435 melanoma): 2650 nM
GI50 (OVCAR-4 ovarian): 1510 nM
TGI (OVCAR-4 ovarian): 2850 nM
GI50 (SK-MEL-2 melanoma): 292 nM
TGI (SK-MEL-2 melanoma): 644 nM
GI50 (SK-MEL-5 melanoma): 1190 nM
TGI (SK-MEL-5 melanoma): 2430 nM

From PubChem BioAssay (NCI)
